The text below walks through data of patent US9856273B2, “ETP derivatives” (priority 2012, dated 2018).

The nature of series [1]: Toxicity on intraperitoneal injection or oral administration. To be noted: up to 20 mg/kg, intraperitoneal injection (IP) or oral administration.
Series [2] deals with Cyclin-dependent kinase inhibitor 1B p27(Kip1). Kind of series: Western blot, induction of p27(Kip1). It counts as cell-based, human. The note with it: A2058, DU145, A549 and SKOV3 cells. As for the experimental part:
(§1) Induction of p16, p53, p21waf1 and p27 (FIGS. 8 and 9): Western blot analyses were performed with specific antibodies. Briefly, human A2058 melanoma, DU145 prostate, A549 non-small lung and SKOV3 ovarian cancer cells were treated with ETP69. Whole-cell lysates (40 […]g) were resolved by SDS-PAGE. Primary specific antibodies to p53, p21^WAF1, p27(Kip1), p16 and Actin were diluted in PBS (pH 7.5) with 5% (w/v) nonfat milk and 0.1% (v/v) Tween-20 over night at 4° C. Horseradish peroxidase-conjugated secondary antibodies were incubated in PBS (pH 7.5) with 5% (w/v) nonfat milk and 0.1% (v/v) Tween-20 for 1 h at room temperature. Positive immuno-reactive proteins were detected using the ECL system (Pierce, Rockford, Ill.).
For orientation: In western blotting, separated proteins are transferred to a membrane and probed.

Series [3] deals with SKOV3 ovarian cancer cells. The series can be described thus: Annexin V-FITC apoptosis assay. It counts as cell-based, human. To be noted: 48 h. As for the experimental part: Apoptosis Determinations (FIG. 11): Apoptosis assays of human SKOV3 ovarian cancer cells based on […] were carried out using Annexin V-FITC. Briefly, cells were seeded in 6-well plates, incubated overnight at 37° C. in 5% (v/v) CO2 and exposed to ETP69 in a dose-dependent manner for 48 h. DMSO was used as the vehicle control. Cells were analyzed using a FACScan flow cytometer to quantify fluorescence. Apoptotic cells were defined as Annexin V-FITC positive. Each experiment was performed in quadruplicate.

For series [4], the system named is normal pancreatic epithelial cells. Kind of series: Viability of normal pancreatic epithelial cells. The note with it: 100 nM to 1000 nM.
Series [5] relates to Panc1 pancreatic cancer cells. The series can be described thus: Senescence assay (senescence-associated beta-galactosidase activity). It counts as cell-based. To be noted: 5 days, compared to DMSO. On the procedure:
Senescence Assay: Panc1 cells were seeded at a density of 3×10^4 cells per well in a 24-well plate. The cells were then treated with 100 nM ETP69 or 0.3% DMSO (vehicle control). Panc-1 and SU.86.86 cells expressing SUV39H1 shRNA or a non-targeting (NT) control shRNA were also seeded in 24-well plates at a density of 3×10^4 cells/well and 5×10^4 cells/well, respectively. After 5 days, cells were washed with PBS, fixed with 3% formaldehyde/PBS, and stained over night at 37° C. with a freshly prepared staining solution (1 mg/ml 5-bromo-4-chloro-3-indolyl b-D-galactoside in 40 mM citric acid/sodium phosphate, pH 6.0, 5 mM potassium ferrocyanide, 5 mM potassium ferricyanide, 150 mM NaCl, 2 mM MgCl2). The blue stain indicates senescence-associated β-galactosidase activity. Photographs were taken with a 100× or a 20× objective under brightfield illumination using an INFINITY2 digital CCD camera (Lumenera, Canada) mounted on a Nikon Eclipse TS100 inverted microscope.

The subject of series [6] is p21WAF1 cyclin-dependent kinase inhibitor 1. The series can be described thus: Western blot, induction of p21WAF1. Type of series: cell-based, human. The note with it: A2058, DU145, A549 and SKOV3 cells. As for the experimental part:
as §1

For a further series, the system named is p53 tumor suppressor. The series can be described thus: Western blot, induction of p53. Type of series: cell-based, human. To be noted: A2058, DU145, A549 and SKOV3 cells (SKOV3 cells do not express p53 protein). As for the experimental part:
as §1

In series [7] the test system is HCC1937 triple negative breast cancer cells. The series can be described thus: Cell viability assay. Type of series: cell-based.
Series [8] deals with A549 non-small cell lung cancer cells. The series can be described thus: MTS cell viability assay, alone and in combination with multi-kinase inhibitor. The note with it: Homo sapiens. Type of series: cell-based. As for the experimental part:
Cell Testing Assays with ETP Derivatives in Combination with DNMT Inhibitors and Multi-Kinase Inhibitors (See FIGS. 12A-12D, 13A-13C and 14A-14C): MTS assays were performed for cell viability for combination study with ETP69 plus DNMT inhibitors or mutikinase inhibitor. Human SKOV3 ovarian and A549 non-small cancer cells were seeded in 96-well plates (5000/well), incubated overnight at 37° C. in 5% CO2, and exposed to ETP69 plus azacitidine, decitabine or sorafenib for 48. Dimethyl sulfoxide (DMSO) was used as the vehicle control. Viable cell numbers were determined by tetrazolium conversion to its formazan dye and absorbance was measured at 490 nm using an automated ELISA plate reader. Each experiment was performed in quadruplicate.
IC50 Determinations for Ovarian, Liver, Pancreatic, CML, AML Cancer Cell Lines (See e.g. FIGS. 4, 6A-6C, 21, 22A, 22B, 23, 24A-24C, 25A, 25B and 34): MTS assays were performed for cell viability. […] Viable cell numbers were determined by tetrazolium conversion to its formazan dye and absorbance was measured at 490 nm using an automated ELISA plate reader. […]
(Formazan colour is commonly taken as a measure of viable cells.)

The subject of series [9] is MDA-MB-468 triple negative breast cancer cells. The series can be described thus: Cell viability assay. It counts as cell-based.
Series [10] has as its system A549 lung cancer SQ xenografts. It counts as in vivo, mouse. To be noted: A549 xenograft, 10 mg/kg orally once daily for 31 days. On the procedure:
Human A549 non-small lung cancer cells (5×10^6) were resuspended in serum-free DMEM medium and Matrigel (ration of 1:1) and subcutaneously injected into the flank of 5-6 weeks old female NOD/SCID/IL-2rg(ko)(NSG). When palpable tumor sizes reached at approximately 50 mm^3, mice were divided into two groups (vehicle=10, treatment=10). Then, ETP69 was orally administered at 10 mg/kg with vehicle (10% DMSO+30% Solutol+60% saline), once daily for 31 days. Tumor volumes were calculated by the formula 1/2a×b^2, where a is the long diameter, and b is the short diameter. Tumor volumes correlate with tumor weights. The statistical significance of group differences was analyzed using a Student's t-test with the two-tailed distribution. P values less than 0.05 were considered statistically significant.

Series [11] has as its system HCC38 triple negative breast cancer cells. The series can be described thus: Cell viability assay. Type of series: cell-based.

The IC50 is the point on the concentration scale where inhibition reaches its midpoint.

For the compound `CN1C(=O)[C@@]23C[C@](C)(C#N)[C@H](c4ccc5c(c4)OCO5)N2C(=O)[C@]1(C)SS3` (racemic) [ETP69, Rac-(3S,6S,7S,8aS)-6-(Benzo[d][1,3]dioxol-5-yl)-2,3,7-trimethyl-1,4-dioxohexahydro-6H-3,8a-epidithiopyrrolo[1,2-a]pyrazine-7-carbonitrile], the toxicity entry in series [1] was “no significant toxicity”. Further, the “induction of p27(Kip1)” value in series [2] was “induces”. For the same compound, the apoptosis entry in series [3] is recorded as “induces apoptosis”. In [4], the “destruction of normal pancreatic cells” value is on record as “little destruction”. For the same compound, the senescence-associated beta-galactosidase activity entry in series [5] is reported as “increased senescence-associated beta-galactosidase activity”. In [6], the “induction of p21WAF1” value is “induces”. Further, in the series on p53 tumor suppressor, the “induction of p53” value is “induces”. The viability inhibition entry in series [7], in series [9] and in series [11] was “viability inhibition” throughout. Moreover, the IC50 in [8] was 0.1 µM. For the same compound, in [10], the toxicity symptoms result is reported as “no observable toxicity symptoms”. Further, the tumor volume entry in series [10] is listed as “decreased”. The tumor weight entry in series [10] is reported as “decreased”.
